Experimental data as given in paper PMC4556473 (British Journal of Pharmacology, 2015).

How the values were obtained:
[1] = target: T1, WT mSlo3 (KCa5.1) channels (Mus musculus, UniProt O54982); test: Two-electrode voltage clamp of WT mSlo3 currents in Xenopus oocytes; format: cell-based; conditions: for inhibition of WT mSlo3 current: pulses to +100 mV
T1 construct: Full-length WT, R196Q and F304Y mSlo3 K^+ channel subunits were expressed in Xenopus oocytes; expressed in transfected cells; host or cells: Xenopus laevis oocytes injected with in vitro transcribed capped mRNA (pBF vector)
T1 sequence (O54982 1-1121): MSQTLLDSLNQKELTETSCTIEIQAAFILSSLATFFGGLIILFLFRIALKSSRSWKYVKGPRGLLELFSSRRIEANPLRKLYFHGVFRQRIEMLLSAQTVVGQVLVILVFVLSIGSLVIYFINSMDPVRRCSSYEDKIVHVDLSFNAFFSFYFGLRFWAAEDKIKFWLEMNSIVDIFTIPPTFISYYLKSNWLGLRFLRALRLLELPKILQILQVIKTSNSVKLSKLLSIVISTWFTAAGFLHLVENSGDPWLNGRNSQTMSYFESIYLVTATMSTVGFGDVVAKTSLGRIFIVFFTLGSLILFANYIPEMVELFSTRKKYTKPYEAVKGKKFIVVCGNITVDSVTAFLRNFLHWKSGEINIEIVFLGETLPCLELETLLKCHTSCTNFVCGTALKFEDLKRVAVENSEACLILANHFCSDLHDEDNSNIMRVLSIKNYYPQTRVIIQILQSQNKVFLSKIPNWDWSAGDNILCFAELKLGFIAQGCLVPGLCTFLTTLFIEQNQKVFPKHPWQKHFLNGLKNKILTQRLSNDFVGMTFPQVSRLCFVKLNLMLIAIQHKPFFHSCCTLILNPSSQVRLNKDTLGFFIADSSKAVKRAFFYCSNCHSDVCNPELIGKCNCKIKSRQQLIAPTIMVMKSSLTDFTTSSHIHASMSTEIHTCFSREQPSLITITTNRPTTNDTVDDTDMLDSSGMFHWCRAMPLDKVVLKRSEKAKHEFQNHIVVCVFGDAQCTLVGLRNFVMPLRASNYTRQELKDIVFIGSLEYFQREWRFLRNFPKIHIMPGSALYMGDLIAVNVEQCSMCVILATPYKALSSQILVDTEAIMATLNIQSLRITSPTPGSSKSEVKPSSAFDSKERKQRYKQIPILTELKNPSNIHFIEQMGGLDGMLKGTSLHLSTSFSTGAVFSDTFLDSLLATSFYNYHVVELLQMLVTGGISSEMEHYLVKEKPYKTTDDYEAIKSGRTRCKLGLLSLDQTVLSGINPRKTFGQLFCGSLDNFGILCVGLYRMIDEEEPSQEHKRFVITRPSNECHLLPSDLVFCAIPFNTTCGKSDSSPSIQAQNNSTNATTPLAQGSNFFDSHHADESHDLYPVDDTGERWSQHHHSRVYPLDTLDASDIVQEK
Procedure: A plasmid containing the full-length mSlo3 sequence was a gift from Dr L. Salkoff (Washington University School of Medicine) and the open-reading frame was subcloned into pBF (Baukrowitz et al., [1999]), a vector optimized for in vitro mRNA synthesis and Xenopus oocyte expression. […] The […] and […] mutations were introduced by Quikchange site-directed mutagenesis (Agilent Technologies, Stockport, UK) and confirmed by automated sequencing. In vitro transcription was carried out using the mMessage mMachine SP6 kit (Ambion, Huntingdon, UK) to produce capped mRNA. Individual oocytes were obtained from humanely killed female Xenopus laevis toads (housed either at the University of Leeds, UK or from the European Xenopus Resource Centre, University of Portsmouth, UK) and were injected with 10-50 ng RNA in a 40 nL volume. […] The volume of the bath was 0.5 mL, which was perfused at a rate of approximately 1 mL·min^-1. 100 mM K^+ solution was made by an equimolar replacement of NaCl with KCl. Data were analysed with […], OriginPro 7.5 (Originlab, Northampton, MA, USA), and GraphPad Prism 6 software (GraphPad Software, San Diego, CA, USA). […] Data are presented as the mean ± SEM of n individual oocytes and statistical significance tested using Student's t-test, ANOVA (with Bonferroni post hoc comparison of means), or by Kruskal-Wallis test (with Dunn's post hoc comparison) as indicated in the Results.

F304Y mSlo3 = F304Y mSlo3 (Mus musculus, UniProt O54982, F304Y); test: Two-electrode voltage clamp of F304Y mSlo3 currents in Xenopus oocytes; format: cell-based; conditions: +100 mV
Procedure: A plasmid containing the full-length mSlo3 sequence was a gift from Dr L. Salkoff (Washington University School of Medicine) and the open-reading frame was subcloned into pBF (Baukrowitz et al., [1999]), a vector optimized for in vitro mRNA synthesis and Xenopus oocyte expression. […] The […] and […] mutations were introduced by Quikchange site-directed mutagenesis (Agilent Technologies, Stockport, UK) and confirmed by automated sequencing. In vitro transcription was carried out using the mMessage mMachine SP6 kit (Ambion, Huntingdon, UK) to produce capped mRNA. Individual oocytes were obtained from humanely killed female Xenopus laevis toads (housed either at the University of Leeds, UK or from the European Xenopus Resource Centre, University of Portsmouth, UK) and were injected with 10-50 ng RNA in a 40 nL volume. […] The volume of the bath was 0.5 mL, which was perfused at a rate of approximately 1 mL·min^-1. 100 mM K^+ solution was made by an equimolar replacement of NaCl with KCl. Data were analysed with […], OriginPro 7.5 (Originlab, Northampton, MA, USA), and GraphPad Prism 6 software (GraphPad Software, San Diego, CA, USA). […]

Sequence of F304Y mSlo3 (O54982 whole entry F304Y): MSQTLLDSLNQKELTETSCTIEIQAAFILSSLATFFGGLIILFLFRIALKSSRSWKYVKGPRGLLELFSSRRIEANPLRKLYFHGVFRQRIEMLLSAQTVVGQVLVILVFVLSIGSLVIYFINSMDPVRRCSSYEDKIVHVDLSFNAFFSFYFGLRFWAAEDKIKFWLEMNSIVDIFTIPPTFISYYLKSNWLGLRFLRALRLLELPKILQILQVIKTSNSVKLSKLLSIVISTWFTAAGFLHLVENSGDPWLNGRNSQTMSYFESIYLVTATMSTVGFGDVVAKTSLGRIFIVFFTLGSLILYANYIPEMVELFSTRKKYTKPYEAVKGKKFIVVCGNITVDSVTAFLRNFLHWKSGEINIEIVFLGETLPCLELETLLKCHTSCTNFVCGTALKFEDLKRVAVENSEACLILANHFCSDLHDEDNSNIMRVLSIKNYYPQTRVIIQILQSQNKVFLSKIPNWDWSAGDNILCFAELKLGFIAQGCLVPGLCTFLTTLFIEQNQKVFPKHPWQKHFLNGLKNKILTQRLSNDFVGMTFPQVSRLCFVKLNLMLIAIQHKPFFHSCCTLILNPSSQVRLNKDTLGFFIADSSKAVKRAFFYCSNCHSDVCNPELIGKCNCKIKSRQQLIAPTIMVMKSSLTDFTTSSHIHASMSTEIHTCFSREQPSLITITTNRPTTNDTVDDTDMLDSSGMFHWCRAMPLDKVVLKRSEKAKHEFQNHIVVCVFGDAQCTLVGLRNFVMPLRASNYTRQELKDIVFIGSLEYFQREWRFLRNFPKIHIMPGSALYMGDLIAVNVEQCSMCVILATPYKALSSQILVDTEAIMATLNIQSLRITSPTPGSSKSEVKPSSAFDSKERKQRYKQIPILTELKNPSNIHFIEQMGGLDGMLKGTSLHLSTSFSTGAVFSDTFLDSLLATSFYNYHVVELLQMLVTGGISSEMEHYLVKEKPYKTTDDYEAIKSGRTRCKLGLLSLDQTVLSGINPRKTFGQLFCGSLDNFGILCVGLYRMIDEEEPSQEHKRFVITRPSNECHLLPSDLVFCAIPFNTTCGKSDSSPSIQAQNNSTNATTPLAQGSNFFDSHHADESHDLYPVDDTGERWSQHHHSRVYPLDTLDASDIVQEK

## [Ba+2].[Cl-].[Cl-] [Ba^2+, barium chloride]
[1]; 2 mM, 2.5 mM extracellular K+
  inhibition of WT mSlo3 current: strongly inhibited
[1]; 2 mM, extracellular K+ raised to 100 mM
  inhibition of WT mSlo3 current in high extracellular K+: prevented
[1]; +100 mV
  Hill slope of inhibition of WT mSlo3 currents: 0.88 ± 0.11
[1]; currents evoked by voltage pulses to +100 mV, Xenopus oocytes, 2.5 mM K+ Ringer's pH 8, read-out: IC50 of inhibition of WT mSlo3 currents
  IC50: 646 ± 100 µM
F304Y mSlo3
  Hill slope of inhibition of F304Y mSlo3 currents: 1.05 ± 0.12
F304Y mSlo3; Xenopus oocytes, read-out: IC50 of inhibition of F304Y mSlo3 currents
  IC50: 525 ± 97 µM

## CC[N+](CC)(CC)CC.[Cl-] [TEA^+, tetraethlyammonium chloride]
[1]; 20 mM
  inhibition of WT mSlo3 current: weakly inhibited

## CCCCCCC[N+](CC)(CC)CCCCc1ccc(Cl)cc1 [clofilium]
[1]; 50 μM
  inhibition of WT mSlo3 current: more strongly inhibited

## COCC(=O)O[C@]1(CCN(C)CCCc2nc3ccccc3[nH]2)CCc2cc(F)ccc2[C@@H]1C(C)C [mibefridil, mibefradil]
[1]; 5 μM
  inhibition of WT mSlo3 current: weakly inhibited
